The values below come from patent US5049637A, “1,2,3,4,10,14b-hexahydrodibenzo[c,f]pyrazino-[1,2-a]azepino derivatives and 10-aza, 10-oxa and 10-thia analogues” (Monash University, priority 1987, dated 1991).

Assay [1] concerns isolated guinea pig ileum (KCl-induced contractions). The experiment in a line: Block of KCl-induced contraction of the isolated guinea-pig ileum. The settings on record: block of contractions of isolated guinea pig ileum induced by KCl. The method, then:
(§1) Compounds according to formula I were tested for their ability to block contractions of the isolated guinea pig ileum induced by KCl, carbachol, or histamine at a concentration of 10^-7 M. Ileum preparations were prepared according to standard methodology. The concentrations shown are the minimum required to show activity.

The subject of assay [2] is isolated guinea pig ileum (carbachol-induced contractions). Put plainly: Block of carbachol-induced contraction of the isolated guinea-pig ileum. The settings on record: block of contractions of isolated guinea pig ileum induced by carbachol. The method, then:
as §1

The test system of assay [3] is isolated guinea pig ileum (histamine-induced contractions). Put plainly: Block of histamine-induced contraction of the isolated guinea-pig ileum. The settings on record: for minimal effective concentration: Cavia porcellus, isolated guinea pig ileum, histamine 10^-7 M, read-out: Effect on Histamine: minimum concentration required to show activity; for Effect on Histamine: block of contractions of isolated guinea pig ileum induced by histamine at 10^-7 M. The method, then:
(§2) The compound of Example 2 was found in low concentrations to inhibit contractions of the guinea-pig isolated ileum and rat isolated stomach strip caused by histamine and 5-hydroxytryptamine respectively. […] Concomitantly, the depressor effects of histamine were blocked, as were the pressor effects of 5-hydroxytryptamine for over 30 minutes. The pressor effects of 5-hydroxytryptamine in anaesthetised and pithed rats were inhibited by intravenous doses of 0.3-1.0 mg/kg body weight. Slightly higher doses reduced the bradycardia and the depressor response (the Bezold-Jarisch reflex mediated by 5-HT3 receptors) to 5-hydroxytryptamine in anaesthetised rats. The drug inhibited oedema in the rat paw caused by intraplantar 5-hydroxytryptamine. […] In mice it inhibited diarrhoea caused by L-5-hydroxytryptophan. In guinea pigs, intravenous doses of 0.03 mg/kg and above reduced the bronchoconstrictor effects of histamine and 5-hydroxytryptamine.
as §1

Assay [4] has as its system pressor effects of 5-hydroxytryptamine. Put plainly: Pressor effects of 5-hydroxytryptamine in rats. The format is in vivo, rat. The settings on record: rat, intravenous; read-out: Intravenous dose depressing/reducing the pressor responses to 5-hydroxytryptamine. The method, then: as §2
(§3) In cats, the effects of the ganglion stimulant McNeil -A-343 and histamine were reduced. Following intravenous injection into guinea-pigs, […] reduced histamine and 5-hydroxytryptamine induced broncho-constriction. Concentrations of 1 μg/ml or greater relaxed the isolated rat uterus in vitro.
(§4) The compound of Example 4 when injected into rats at intravenous doses of 0.3 mg/kg or greater reduced the pressor effects of 5-hydroxytryptamine and also the depressor effects of histamine. In cats, the effect of histamine was reduced after these doses also.

The test system of assay [5] is depressor effects of histamine. Put plainly: Depressor effects of histamine in rats. The format is in vivo, rat. The settings on record: Rattus norvegicus, intravenous, read-out: Intravenous dose reducing the depressor effects of histamine. The method, then:
as §2, §4

Assay [6] deals with depressor effects of histamine. Put plainly: Effects of histamine in cats. The format is in vivo, cat. The settings on record: intravenous. The method, then:
as §2, §3, §4

The subject of assay [7] is bronchoconstrictor effects of histamine and 5-hydroxytryptamine. Put plainly: Histamine and 5-hydroxytryptamine induced bronchoconstriction in guinea pigs. The format is in vivo, guinea pig. The settings on record: Cavia porcellus, intravenous, read-out: Intravenous dose reducing histamine and 5-hydroxytryptamine bronchoconstriction. The method, then:
as §2, §3, §4
Thus doses of 1 mg/kg given intraperitoneally attenuated the facilitation of spinal reflex activity caused by p-chloroamphetamine, and also the facilitation of spinal reflexes induced by fenfluramine in spinal and decerebrate rats. […] The drug in doses of 10 and 20 mg/kg intraperitoneally and in doses of 20 mg/kg by mouth attenuated morphine-induced catalepsy. We conclude therefore that this drug is an orally active drug with central actions, particularly affecting serotonergic mechanisms, but has no effect in vitro (Table 1). […] Thus it was found after intravenous doses of 0.03 mg/kg to reduce histamine and 5-hydroxytryptamine bronchoconstriction in the guinea pig.

The test system of assay [8] is isolated rat uterus. Put plainly: Isolated rat uterus in vitro.
The subject of assay [9] is arterial blood pressure and heart rate. Put plainly: Arterial blood pressure and heart rate in guinea pigs after intravenous doses. Type of assay: in vivo, guinea pig. The settings on record: intravenous 0.01 mg/kg or greater.
Assay [10] shares this test system. The experiment in a line: Arterial blood pressure, heart rate and pressor responses to noradrenaline, sympathetic nerve stimulation and tyramine after intravenous injection into rats. The settings on record: rat, intravenous; read-out: Intravenous dose causing rises in arterial blood pressure. Type of assay: in vivo, rat.
Assay [11] relates to effects of the ganglion stimulant McNeil -A-343. Put plainly: Effects of the ganglion stimulant McNeil-A-343 in cats. The format is in vivo, cat. The method, then: as §3

`NC(=S)N1CCN2c3ccccc3Cc3ccccc3C2C1` (stereo not drawn) [Example 4, 2-Thiocarboxamido-1,2,3,4,10,14b-hexahydrodibenzo [c,f]pyrazino[1,2-a]azepine]: in [1], the “Effect on KCl” value is listed as “- (no effect)”. Further, the “Effect on Carbachol” value in assay [2] was “- (no effect)”. In assay [3], the minimal effective concentration lay within 0.01 to 0.1 µM. Besides, the “Effect on Histamine” value in [3] is on record as “++”. In addition, the minimal effective dose is no less than 0.3 mg/kg in assay [4], no less than 0.3 mg/kg in assay [5] and no less than 0.01 mg/kg in [7]. In [6], the “Effects of histamine (depressor) in cats” value is given as “reduced”. In assay [8], the “Concentration reducing contractions of the isolated rat uterus caused by 5-hydroxytryptamine or high potassium concentrations” value is no less than 0.1 µg/mL. Moreover, the Anti-spasmodic action entry in [8] (0.1 μg/ml or greater) was “anti-spasmodic action”. Moreover, the “Effects on arterial blood pressure and heart rate compared with the compound of Example 2” value in assay [9] was “smaller effects”.
`c1ccc2c(c1)Cc1ccccc1N1CCN(C3=NCCN3)CC21` (stereo not drawn) [Example 3, 2-(2-Imidazolino)-1,2,3,4,10,14b-hexahydrodibenzo [c,f]pyrazino[1,2-a]azepine p-toluenesulphonate]: in assay [1], the “Effect on KCl” value is on record as “- (no effect)”. For the same compound, the “Effect on Carbachol” value in assay [2] is reported as “- (no effect)”. For the same compound, the minimal effective concentration in [3] was 0.01 µM; in assay [8] (Rattus norvegicus, read-out: Concentration relaxing the isolated rat uterus), no less than 1 µg/mL. Moreover, the “Effect on Histamine” value in assay [3] is recorded as “++”. Besides, the minimal effective dose in assay [10] was no less than 0.1 mg/kg; in [4], no less than 0.1 mg/kg; in assay [7], 0.01 mg/kg. Besides, the “Effects of histamine (depressor) in cats” value in assay [6] was “reduced”. The “Effects of the ganglion stimulant McNeil -A-343” value in assay [11] is on record as “reduced”.
